Data as given in patent publication US20220356174A1, “PYRIDIN-2-ONE COMPOUNDS USEFUL AS SMARCA2 ANTAGONISTS” (Epizyme, Inc., priority 2018, published 2022).

target: FL-SMARCA4 (Homo sapiens, UniProt P51532); test: SMARCA4 ATPase activity assay (ADP-Glo, chicken mononucleosome substrate); conditions: FL-SMARCA4 IC50
Sequence (P51532 whole entry): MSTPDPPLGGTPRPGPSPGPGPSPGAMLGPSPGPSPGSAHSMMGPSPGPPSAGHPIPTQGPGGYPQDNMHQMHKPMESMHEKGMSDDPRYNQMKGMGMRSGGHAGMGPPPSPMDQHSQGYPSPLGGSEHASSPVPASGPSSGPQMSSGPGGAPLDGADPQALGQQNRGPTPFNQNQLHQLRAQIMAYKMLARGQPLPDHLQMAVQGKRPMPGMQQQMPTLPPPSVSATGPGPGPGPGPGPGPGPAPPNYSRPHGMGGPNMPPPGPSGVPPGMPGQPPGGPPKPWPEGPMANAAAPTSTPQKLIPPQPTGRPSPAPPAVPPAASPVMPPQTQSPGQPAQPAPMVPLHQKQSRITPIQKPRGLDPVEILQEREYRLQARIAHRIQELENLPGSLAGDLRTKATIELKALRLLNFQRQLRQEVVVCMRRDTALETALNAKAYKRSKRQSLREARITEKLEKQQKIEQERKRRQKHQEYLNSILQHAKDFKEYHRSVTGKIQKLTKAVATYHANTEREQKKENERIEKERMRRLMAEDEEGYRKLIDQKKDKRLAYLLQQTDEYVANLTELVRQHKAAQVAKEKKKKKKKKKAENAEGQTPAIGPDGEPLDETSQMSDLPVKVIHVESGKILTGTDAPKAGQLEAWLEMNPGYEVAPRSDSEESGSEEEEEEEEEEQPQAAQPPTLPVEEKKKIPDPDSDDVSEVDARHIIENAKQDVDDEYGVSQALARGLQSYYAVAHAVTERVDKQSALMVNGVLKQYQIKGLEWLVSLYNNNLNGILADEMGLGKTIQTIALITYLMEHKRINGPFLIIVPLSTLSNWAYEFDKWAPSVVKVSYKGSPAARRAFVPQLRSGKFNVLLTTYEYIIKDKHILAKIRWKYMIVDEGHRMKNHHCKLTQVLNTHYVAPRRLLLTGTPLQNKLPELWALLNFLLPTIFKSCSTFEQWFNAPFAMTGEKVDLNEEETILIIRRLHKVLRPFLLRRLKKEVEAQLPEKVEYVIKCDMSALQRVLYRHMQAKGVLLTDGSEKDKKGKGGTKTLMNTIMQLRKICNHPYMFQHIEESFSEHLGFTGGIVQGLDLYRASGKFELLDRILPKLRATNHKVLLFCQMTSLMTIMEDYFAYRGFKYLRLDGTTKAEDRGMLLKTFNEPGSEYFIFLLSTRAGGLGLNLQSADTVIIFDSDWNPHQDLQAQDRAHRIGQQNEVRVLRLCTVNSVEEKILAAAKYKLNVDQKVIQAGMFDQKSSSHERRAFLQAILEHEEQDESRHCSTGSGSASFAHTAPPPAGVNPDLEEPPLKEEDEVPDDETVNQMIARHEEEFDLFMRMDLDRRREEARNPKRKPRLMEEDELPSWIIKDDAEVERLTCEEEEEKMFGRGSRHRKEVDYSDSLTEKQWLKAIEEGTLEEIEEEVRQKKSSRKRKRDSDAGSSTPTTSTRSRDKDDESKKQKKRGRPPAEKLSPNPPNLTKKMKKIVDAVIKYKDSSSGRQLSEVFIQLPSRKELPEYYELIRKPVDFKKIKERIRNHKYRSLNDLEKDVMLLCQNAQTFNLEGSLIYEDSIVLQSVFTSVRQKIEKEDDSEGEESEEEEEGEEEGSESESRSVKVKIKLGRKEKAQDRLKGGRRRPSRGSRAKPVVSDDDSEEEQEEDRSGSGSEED

IC50	SMILES
> 50 µM	COc1ncc(C(=O)Nc2cc(F)c(=O)n(CC(F)F)c2)cc1F [Compound 42d]
> 50 µM	Cc1cc(=O)n(C)cc1NC(=O)[C@@H]1CNC[C@H]1C(F)(F)F [Compound 8d]
> 50 µM	CCn1cc(NC(=O)CC2CCOCC2)ccc1=O [Compound 9d]
> 50 µM	Cn1cc(NC(=O)C(C)(C)Oc2ccc(C#N)cc2)cc(Cl)c1=O [Compound 3d]
28.9 µM	CCn1nc(NC(=O)c2cnc(Cl)s2)ccc1=O [Compound 20d]
> 50 µM	Cn1cnc2cc(C(=O)Nc3cc(F)c(=O)n(CCF)c3)[nH]c2c1=O [Compound 48d]
15.3 µM	O=C(Nc1ccc(=O)n(CC(F)(F)F)n1)c1cnc(Cl)s1 [Compound 23d]

same assay, conditions: FL-SMARCA4 IC50, Table 3a.2; SMARCA4 5 nM, ATP 250 uM, mononucleosome 10 nM

IC50	SMILES
8.48 µM	O=C(Nc1cc(F)c(=O)n(CC(F)F)c1)c1cnc(C(F)(F)F)c(F)c1 [Compound 69a]
> 50 µM	CCn1cc(NC(=O)c2cn3ccccc3n2)ccc1=O [Compound 20a]
> 50 µM	CCn1cc(NC(=O)[C@H]2CCC(=O)N(C)[C@@H]2c2ccncc2)ccc1=O [Compound 5a]
> 50 µM	CCn1cc(NC(=O)c2ccc(C(F)(F)F)cn2)ccc1=O [Compound 58a]
39.6 µM	CCn1cc(N(C)C(=O)c2cc(Cl)c(Cl)n2C)ccc1=O [Compound 71a]
> 50 µM	CO[C@H]1C[C@@H](C(=O)Nc2ccc(=O)n(C)c2)N(C)C1 [Compound 10a]

same assay, conditions: FL-SMARCA4 IC50, Table 3b.2; SMARCA4 5 nM, ATP 250 uM, mononucleosome 10 nM

IC50	SMILES
> 50 µM	CC(=O)c1cc(C(=O)Nc2c[nH]c(=O)c(C)c2)ccc1C [Compound 1b]
12.6 µM	N#Cc1ccc(C(=O)Nc2cc(F)c(=O)n(CCF)c2)cc1Cl [Compound 19b]

same assay, conditions: FL-SMARCA4 IC50, Table 3.2; ATPase assay, enzyme 5 nM, ATP 250 uM, chicken mononucleosome 10 nM, 30 min preincubation

IC50	SMILES
> 50 µM	CCn1cc(NC(=O)c2cc(-c3cn(C)cn3)c(Cl)s2)ccc1=O [Compound 280]
> 50 µM	O=C(Nc1ccc(=O)n(Cc2ccccc2)c1)c1ccc(Br)s1 [Compound 54]
> 50 µM	CCn1cc(NC(=O)c2cc(Cl)c(Cl)n2C2CC2)ccc1=O [Compound 62]
> 50 µM	CCn1cc(NC(=O)c2cc(Cl)ns2)ccc1=O [Compound 107]
> 50 µM	CCc1sc(C(=O)Nc2ccc(=O)n(CC)c2)cc1Cl [Compound 95]
> 50 µM	CCn1cc(NC(=O)c2cnc(-c3ccc4c(c3)CCO4)s2)ccc1=O [Compound 5]
0.94 µM	Cn1c(C(=O)Nc2cc(Cl)c(=O)n(CCF)c2)cc(Cl)c1C#N [Compound 162]
3.66 µM	CCn1cc(NC(=O)c2cc(C#Cc3cccnc3)c(Cl)s2)ccc1=O [Compound 287]
> 50 µM	CCn1cc(NC(=O)c2cc(C(C)C)n(-c3ccccn3)n2)ccc1=O [Compound 10]
> 50 µM	CCn1cc(NC(=O)c2cc(Cl)c(Cl)s2)cc(OC)c1=O [Compound 110]
> 50 µM	CCc1cc(NC(=O)c2cc(Cl)c(Cl)s2)cn(CC)c1=O [Compound 117]
45.3 µM	COc1ccc(Cn2c(C(=O)Nc3ccc(=O)n(CCF)c3)cc(Cl)c2C#N)cc1 [Compound 200]
> 50 µM	CCn1cc(NC(=O)c2csc(NC(C)C)n2)ccc1=O [Compound 218]
13.6 µM	Cn1c(C(=O)Nc2ccc(=O)n(CCF)c2)cc(Cl)c1Cl [Compound 58]
> 50 µM	CCn1cc(NC(=O)c2cc(Cl)c(Cl)s2)cc(OCCN2CCOCC2)c1=O [Compound 122]
> 50 µM	N#Cc1ncc(C(=O)Nc2cc(F)c(=O)n(CCF)c2)o1 [Compound 266]
> 50 µM	CCn1cc(NC(=O)c2nncs2)ccc1=O [Compound 90]
16.6 µM	CCn1cc(NC(=O)c2cc(Cl)c(Cl)s2)cc(NCCOC)c1=O [Compound 113]
> 50 µM	CCCn1cc(NC(=O)c2cc(Cl)c(Cl)n2C)ccc1=O [Compound 68]
23.7 µM	O=C(Nc1cc(NCCc2cccnc2)c(=O)n(CCF)c1)c1cc(Cl)c(Cl)s1 [Compound 257]
35.6 µM	CCn1cc(NC(=O)c2cc(Cl)c(C)s2)ccc1=O [Compound 73]

same assay, conditions: FL-SMARCA4 IC>50, Table 3c.2; ATPase assay, enzyme 5 nM, ATP 250 uM, chicken mononucleosome 10 nM, 30 min preincubation

IC50	SMILES
> 50 µM	O=C(Nc1cc(CO)c(=O)n(CC(F)F)c1)c1cc(F)c(Cl)s1 [Compound 12c]
37.5 µM	O=C(Nc1cc(F)c(=O)n(CC(F)F)c1)c1cc(C2CC(c3ccncc3)C2)c(Cl)s1 (stereo not drawn) [Compound 152c]
26 µM	Cn1ccc(-c2cc(NC(=O)c3cc(Cl)c(C(F)(F)F)s3)cn(CC(F)F)c2=O)n1 [Compound 103c]
> 50 µM	O=C(Nc1cc(F)c(=O)n(CC(F)F)c1)c1cc(C#CC2COC2)c(C2CC2)s1 [Compound 94c]
> 50 µM	COCc1cc(NC(=O)c2cc(F)c(Cl)s2)cn(CC(F)F)c1=O [Compound 3c]
0.142 µM	COc1nc(C#Cc2cc(C(=O)Nc3cc(F)c(=O)n(CC(F)F)c3)sc2Cl)cs1 [Compound 107c]
> 50 µM	Cn1nccc1-c1cc(NC(=O)c2cc(Cl)c(C(F)(F)F)s2)cn(CC(F)F)c1=O [Compound 13c]
22.1 µM	O=C(Nc1cc(F)c(=O)n(CC(F)CO)c1)c1cc(Cl)c(Cl)s1 (stereo not drawn) [Compound 50c]
> 50 µM	O=C(Nc1ccc(=O)n(CC(F)F)c1)c1sc(C(F)(F)F)cc1Cl [Compound 46c]

target: T1, FL-SMARCA2 (full-length human SMARCA2 isoform 1) (Homo sapiens, UniProt P51531); test: SMARCA2 ATPase activity assay (ADP-Glo, chicken mononucleosome substrate); format: biochemical; conditions: Table 3a.1; SMARCA2 5 nM, ATP 250 uM, mononucleosome 10 nM
T1 construct: FLAG tag (YKDDDDK) (C); made in house; host or cells: Sf21 insect cells (baculovirus, pFastBacI)
Text: Molecular Biology: Full-length human SMARCA2 isoform 1 (P51531) transcript clone was amplified from a cDNA library incorporating an N-terminal HIS tag ([…]) fused directly to Ser2 of SMARCA2 and a C-FLAG tag (YKDDDDK) fused directly to Glu1590 of SMARCA2. The amplified gene was subcloned into pFastBacI (Life Technologies).
Protein Expression: Recombinant baculovirus were generated and protein over-expression was accomplished by infecting exponentially growing Sf21 insect cell culture at 1.24×10^6 cell/ml with an MOI of 0.1. Infections were carried out for 76 hours, harvested by centrifugation, and stored at −80° C. for purification.
Expressed full-length SMARCA2 was purified from cell paste by FLAG affinity chromatography followed by anion exchange chromatography. The protein was dialyzed into a storage buffer containing 25 mM HEPES, 300 mM KCl, 10% Glycerol, pH 7.9, 1 mM TCEP and 0.01% Tween-20. The purity of the protein was measured as 74% using micro-capillary based gel electrophoresis.

T1 sequence (P51531 with tags, fused parts or gaps): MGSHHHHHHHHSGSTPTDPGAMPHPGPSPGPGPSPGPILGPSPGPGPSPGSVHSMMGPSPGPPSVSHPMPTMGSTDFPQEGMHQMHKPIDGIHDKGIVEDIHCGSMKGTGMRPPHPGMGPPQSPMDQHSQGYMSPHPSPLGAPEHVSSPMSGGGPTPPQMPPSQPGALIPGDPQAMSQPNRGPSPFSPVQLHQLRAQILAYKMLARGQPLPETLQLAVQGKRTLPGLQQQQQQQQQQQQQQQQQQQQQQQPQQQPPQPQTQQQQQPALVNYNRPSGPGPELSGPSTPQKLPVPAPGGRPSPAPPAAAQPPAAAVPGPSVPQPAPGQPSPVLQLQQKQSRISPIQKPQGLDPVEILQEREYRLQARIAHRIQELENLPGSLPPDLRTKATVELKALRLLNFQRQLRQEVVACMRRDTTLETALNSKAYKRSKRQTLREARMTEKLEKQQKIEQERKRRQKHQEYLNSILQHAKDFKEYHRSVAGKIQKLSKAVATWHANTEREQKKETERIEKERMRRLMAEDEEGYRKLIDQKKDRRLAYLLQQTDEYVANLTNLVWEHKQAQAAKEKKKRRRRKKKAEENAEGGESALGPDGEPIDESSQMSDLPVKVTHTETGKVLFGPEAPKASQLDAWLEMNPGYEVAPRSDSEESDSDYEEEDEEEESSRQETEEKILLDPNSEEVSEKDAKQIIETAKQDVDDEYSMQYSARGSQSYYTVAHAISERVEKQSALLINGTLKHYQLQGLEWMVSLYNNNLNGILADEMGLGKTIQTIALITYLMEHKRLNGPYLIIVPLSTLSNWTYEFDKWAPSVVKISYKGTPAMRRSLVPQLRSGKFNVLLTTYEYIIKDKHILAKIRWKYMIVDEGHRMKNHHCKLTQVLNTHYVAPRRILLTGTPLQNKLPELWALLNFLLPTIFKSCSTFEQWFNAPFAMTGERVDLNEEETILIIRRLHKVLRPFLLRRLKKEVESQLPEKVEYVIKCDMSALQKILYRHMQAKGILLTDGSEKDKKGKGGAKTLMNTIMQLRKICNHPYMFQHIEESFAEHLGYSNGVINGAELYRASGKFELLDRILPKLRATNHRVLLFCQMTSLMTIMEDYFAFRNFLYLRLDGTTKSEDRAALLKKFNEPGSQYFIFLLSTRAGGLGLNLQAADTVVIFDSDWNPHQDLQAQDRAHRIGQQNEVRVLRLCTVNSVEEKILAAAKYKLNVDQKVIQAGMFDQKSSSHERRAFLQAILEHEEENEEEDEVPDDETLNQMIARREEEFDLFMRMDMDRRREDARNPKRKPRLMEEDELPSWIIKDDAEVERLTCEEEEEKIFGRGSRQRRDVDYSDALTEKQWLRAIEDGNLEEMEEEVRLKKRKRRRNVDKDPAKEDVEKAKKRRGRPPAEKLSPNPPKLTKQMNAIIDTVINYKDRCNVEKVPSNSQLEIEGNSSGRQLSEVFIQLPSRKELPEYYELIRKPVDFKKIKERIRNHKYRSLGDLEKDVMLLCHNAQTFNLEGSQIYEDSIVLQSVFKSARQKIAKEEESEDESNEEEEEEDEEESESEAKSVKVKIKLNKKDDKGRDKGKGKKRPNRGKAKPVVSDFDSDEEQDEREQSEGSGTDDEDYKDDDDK

IC50	SMILES
1.53 µM	O=C(Nc1cc(F)c(=O)n(CC(F)F)c1)c1cnc(C(F)(F)F)c(F)c1 [Compound 69a]
> 50 µM	CCn1cc(NC(=O)c2cn3ccccc3n2)ccc1=O [Compound 20a]
> 50 µM	CCn1cc(NC(=O)[C@H]2CCC(=O)N(C)[C@@H]2c2ccncc2)ccc1=O [Compound 5a]
> 50 µM	CCn1cc(NC(=O)c2ccc(C(F)(F)F)cn2)ccc1=O [Compound 58a]
2.72 µM	CCn1cc(N(C)C(=O)c2cc(Cl)c(Cl)n2C)ccc1=O [Compound 71a]
> 50 µM	CO[C@H]1C[C@@H](C(=O)Nc2ccc(=O)n(C)c2)N(C)C1 [Compound 10a]

same assay, conditions: Table 3b.1; SMARCA2 5 nM, ATP 250 uM, mononucleosome 10 nM

IC50	SMILES
> 50 µM	CC(=O)c1cc(C(=O)Nc2c[nH]c(=O)c(C)c2)ccc1C [Compound 1b]
2.02 µM	N#Cc1ccc(C(=O)Nc2cc(F)c(=O)n(CCF)c2)cc1Cl [Compound 19b]

same assay, conditions: Table 3c.1; ATPase assay, enzyme 5 nM, ATP 250 uM, chicken mononucleosome 10 nM, 30 min preincubation

IC50	SMILES
34.8 µM	O=C(Nc1cc(CO)c(=O)n(CC(F)F)c1)c1cc(F)c(Cl)s1 [Compound 12c]
4.69 µM	O=C(Nc1cc(F)c(=O)n(CC(F)F)c1)c1cc(C2CC(c3ccncc3)C2)c(Cl)s1 (stereo not drawn) [Compound 152c]
31.3 µM	Cn1ccc(-c2cc(NC(=O)c3cc(Cl)c(C(F)(F)F)s3)cn(CC(F)F)c2=O)n1 [Compound 103c]
> 50 µM	O=C(Nc1cc(F)c(=O)n(CC(F)F)c1)c1cc(C#CC2COC2)c(C2CC2)s1 [Compound 94c]
40 µM	COCc1cc(NC(=O)c2cc(F)c(Cl)s2)cn(CC(F)F)c1=O [Compound 3c]
0.0508 µM	COc1nc(C#Cc2cc(C(=O)Nc3cc(F)c(=O)n(CC(F)F)c3)sc2Cl)cs1 [Compound 107c]
> 50 µM	Cn1nccc1-c1cc(NC(=O)c2cc(Cl)c(C(F)(F)F)s2)cn(CC(F)F)c1=O [Compound 13c]
2.61 µM	O=C(Nc1cc(F)c(=O)n(CC(F)CO)c1)c1cc(Cl)c(Cl)s1 (stereo not drawn) [Compound 50c]
> 50 µM	O=C(Nc1ccc(=O)n(CC(F)F)c1)c1sc(C(F)(F)F)cc1Cl [Compound 46c]

same assay, conditions: Table 3.1; ATPase assay, enzyme 5 nM, ATP 250 uM, chicken mononucleosome 10 nM, 30 min preincubation

IC50	SMILES
> 50 µM	CCn1cc(NC(=O)c2cc(-c3cn(C)cn3)c(Cl)s2)ccc1=O [Compound 280]
> 50 µM	O=C(Nc1ccc(=O)n(Cc2ccccc2)c1)c1ccc(Br)s1 [Compound 54]
> 50 µM	CCn1cc(NC(=O)c2cc(Cl)c(Cl)n2C2CC2)ccc1=O [Compound 62]
36.7 µM	CCn1cc(NC(=O)c2cc(Cl)ns2)ccc1=O [Compound 107]
> 50 µM	CCc1sc(C(=O)Nc2ccc(=O)n(CC)c2)cc1Cl [Compound 95]
> 50 µM	CCn1cc(NC(=O)c2cnc(-c3ccc4c(c3)CCO4)s2)ccc1=O [Compound 5]
0.194 µM	Cn1c(C(=O)Nc2cc(Cl)c(=O)n(CCF)c2)cc(Cl)c1C#N [Compound 162]
1.28 µM	CCn1cc(NC(=O)c2cc(C#Cc3cccnc3)c(Cl)s2)ccc1=O [Compound 287]
> 50 µM	CCn1cc(NC(=O)c2cc(C(C)C)n(-c3ccccn3)n2)ccc1=O [Compound 10]
> 50 µM	CCn1cc(NC(=O)c2cc(Cl)c(Cl)s2)cc(OC)c1=O [Compound 110]
> 50 µM	CCc1cc(NC(=O)c2cc(Cl)c(Cl)s2)cn(CC)c1=O [Compound 117]
48.3 µM	COc1ccc(Cn2c(C(=O)Nc3ccc(=O)n(CCF)c3)cc(Cl)c2C#N)cc1 [Compound 200]
> 50 µM	CCn1cc(NC(=O)c2csc(NC(C)C)n2)ccc1=O [Compound 218]
1.3 µM	Cn1c(C(=O)Nc2ccc(=O)n(CCF)c2)cc(Cl)c1Cl [Compound 58]
> 50 µM	CCn1cc(NC(=O)c2cc(Cl)c(Cl)s2)cc(OCCN2CCOCC2)c1=O [Compound 122]
> 50 µM	N#Cc1ncc(C(=O)Nc2cc(F)c(=O)n(CCF)c2)o1 [Compound 266]
> 50 µM	CCn1cc(NC(=O)c2nncs2)ccc1=O [Compound 90]
14.1 µM	CCn1cc(NC(=O)c2cc(Cl)c(Cl)s2)cc(NCCOC)c1=O [Compound 113]
8.55 µM	CCCn1cc(NC(=O)c2cc(Cl)c(Cl)n2C)ccc1=O [Compound 68]
19.1 µM	O=C(Nc1cc(NCCc2cccnc2)c(=O)n(CCF)c1)c1cc(Cl)c(Cl)s1 [Compound 257]
11.5 µM	CCn1cc(NC(=O)c2cc(Cl)c(C)s2)ccc1=O [Compound 73]

same assay, conditions: Table 3d.1; ATPase assay, enzyme 5 nM, ATP 250 uM, chicken mononucleosome 10 nM, 30 min preincubation; read-out: FL-SMARCA2 IC>50

IC50	SMILES
27.6 µM	COc1ncc(C(=O)Nc2cc(F)c(=O)n(CC(F)F)c2)cc1F [Compound 42d]
> 50 µM	Cc1cc(=O)n(C)cc1NC(=O)[C@@H]1CNC[C@H]1C(F)(F)F [Compound 8d]
> 50 µM	CCn1cc(NC(=O)CC2CCOCC2)ccc1=O [Compound 9d]
> 50 µM	Cn1cc(NC(=O)C(C)(C)Oc2ccc(C#N)cc2)cc(Cl)c1=O [Compound 3d]
7.37 µM	CCn1nc(NC(=O)c2cnc(Cl)s2)ccc1=O [Compound 20d]
> 50 µM	Cn1cnc2cc(C(=O)Nc3cc(F)c(=O)n(CCF)c3)[nH]c2c1=O [Compound 48d]
12.5 µM	O=C(Nc1ccc(=O)n(CC(F)(F)F)n1)c1cnc(Cl)s1 [Compound 23d]
